Measurements taken from US9518107B2, “Pharmaceutical compositions containing polypeptides derived from α-1 antitrypsin and methods of use thereof” (YISSUM RESEARCH DEVELOPMENT COMPANY OF THE HEBREW …, priority 2010, dated 2016).

Tested on: Female C57BL/6 mice
Assay: Experimental autoimmune encephalitis (EAE), MOG 35-55 induced, neurological score
Type: in vivo
Details: thrice a week
Description: (§1) Female C57BL/6 mice were injected subcutaneously into 4 sites on the back, adjacent to each of the forelimbs and hindlimbs (total amount 200 μl) with a myelin oligodendritic glycoprotein (MOG) 35-55 fragment emulsified with complete Freund's adjuvant. Thereafter, each animal was i.p. injected with pertusis toxin (PTX; 200 ng/mouse) in PBS and an additional
PTX injection was repeated 2 days later, which is a standard protocol for initiating experimental autoimmune encephalomyelitis (EAE) in mice. UBE polypeptide (SEQ ID NO:2) was intraperitoneally (i.p.) injected (0.3 μg/kg, thrice a week) five days after MOG immunization (day of onset of symptoms). The animals were evaluated for neurological score from 0 (no effect) to 6 (severe neurological symptoms including paralysis). Results are the mean±SE of neurological score (sum of all scores divided by the number of animals in each experimental group) at each of the indicated time intervals after MOG injection.
as §1, with “additional PTX injection was repeated 2 days later. Four days after MOG immunization, each mouse received i.p. injections (1 μg/kg, thrice a week) of each of the following polypeptides:” for “additional”
The animals were evaluated for neurological score from 0 (no effect) to 6 (severe neurological symptoms including paralysis). Results are the mean±SE of neurological score (sum of all scores divided by the number of animals in each experimental group) at each of the indicated time intervals after immunization.

## SMPPIVRFDHPFLFIIFEEHTQSPLFVGKVVDPTHK (listed as Mus musculus) [UBE, 36-mer peptide corresponding to residues 378-413 of Mus musculus alpha-1-antitrypsin (serpin a1c)]
i.p. 0.3 μg/kg, from five days after MOG immunization, FIG. 2
  neurological symptoms (neurological score 0 to 6): reduced the neurological symptoms
i.p. 1 μg/kg, from four days after MOG immunization, FIG. 3
  neurological symptoms (neurological score 0 to 6): reduced the neurological symptoms
